Patent US20190015650A1, “MICRONEEDLE TATTOO PATCHES AND USE THEREOF” (Massachusetts Institute of Technology, priority 2017, published 2019)

Key:
[1] = Photostability of dyes exposed to compact fluorescent (CFL) bulb; type: physicochemical
Protocol: Dyes were prepared in solution (1 mM) or suspension (1 mg/mL) and exposed to light from a compact fluorescent (CFL) bulb (FIG. 9A). 55 fluorophores were tested including organic, encapsulated organic, inorganic, inorganic nanoparticle, tattoo, and semiconducting polymer dots.

[2] = Chemical stability of dyes: hydrogen peroxide and pH; type: physicochemical
Protocol: Additional evaluations on the dyes to withstand oxidative stress were tested by submerging the dye in 3 mM or 3 micromolar hydrogen peroxide, and compared for signal before and after such treatment (FIG. 9B). 23 fluorophores were tested.
The pH stability of the dyes was evaluated by submerging in different pH ranging from 1 to 13 (FIG. 9C). 17 fluorophores were tested.

Compound | Performance: photostability [1] | Performance: chemical stability [2]
Rhodamine | Poor photostability | –
O=C1OC2(c3ccc(O)cc3Oc3cc(O)ccc32)c2ccccc21 [Fluorescein] | Poor photostability | –
CCN1C(=CC=CC=CC=CC2=[N+](CCCCCC(=O)O)c3ccc(S(=O)(=O)O)cc3C2(C)C)C(C)(C)c2cc(S(=O)(=O)[O-])ccc21 [CY7] | Poor photostability | Poor chemical stability
CCN1/C(=C/C=C/C=C/C2=[N+](CCCCCC(=O)O)c3ccc(S(=O)(=O)O)cc3C2(C)C)C(C)(C)c2cc(S(=O)(=O)[O-])ccc21 [CY5] | Poor photostability | Poor chemical stability
CCCN1/C(=C/C=C2\CCCC(/C=C/C3=[N+](CCC)c4ccccc4C3(C)C)=C2Cl)C(C)(C)c2ccccc21.[I-] [IR780] | Poor photostability | Poor chemical stability
